Laboratory results published in patent publication US11702404B2, “GLP-1R modulating compounds” (priority 2019, dated 2023).
Read-outs that look alike come from different tables or passages of the source.

Assays:
GLP-1R = GLP-1R (Homo sapiens, UniProt P43220); assay: GLP-1R activation: cAMP increase in CHO cells stably expressing GLP-1R; format: cell-based
[1] = Microsomal stability, human liver microsomes (predicted hepatic clearance); conditions: predicted from in vitro microsomal stability data
[2] = cAMP increase, CHO cells stably expressing GLP-1R, 10 point dose response, 30 minutes incubation, read-out: EC50

Sequence of GLP-1R (P43220 24-463): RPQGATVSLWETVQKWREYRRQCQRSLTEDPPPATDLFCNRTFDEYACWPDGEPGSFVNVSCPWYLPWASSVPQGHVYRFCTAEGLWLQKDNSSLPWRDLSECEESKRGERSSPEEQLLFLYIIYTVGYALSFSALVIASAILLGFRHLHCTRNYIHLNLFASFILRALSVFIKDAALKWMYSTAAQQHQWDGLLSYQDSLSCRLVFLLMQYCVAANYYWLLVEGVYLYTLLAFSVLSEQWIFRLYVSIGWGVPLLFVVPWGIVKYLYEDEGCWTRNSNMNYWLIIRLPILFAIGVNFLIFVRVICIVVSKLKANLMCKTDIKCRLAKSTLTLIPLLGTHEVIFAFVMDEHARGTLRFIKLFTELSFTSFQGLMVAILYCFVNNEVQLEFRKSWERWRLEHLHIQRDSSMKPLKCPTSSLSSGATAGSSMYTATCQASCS

## N#Cc1ccc(COc2cccc(-c3ccc(Cc4nc5ccc(C(=O)O)cc5n4C[C@@H]4CCN4C4COC4)c(F)c3)n2)c(F)c1 [Example 396, (S)-2-(4-(6-((4-cyano-2-fluorobenzyl)oxy)pyridin-2-yl)-2-fluorobenzyl)-1-((1-(oxetan-3-yl)azetidin-2-yl)methyl)-1H-benzo[d]imidazole-6-carboxylic acid]
GLP-1R; read-out: EC50
  EC50: 45.5 nM
[1]
  Predicted Hepatic Clearance (Pred. Cl.): 8.67 mL/min/kg

## COc1cc(C#N)ccc1COc1nccc(-c2cc(F)c(Cc3nc4c(F)cc(C(=O)O)cc4n3C[C@@H]3CCO3)cc2F)n1 [Example 398, (S)-2-(4-(2-((4-cyano-2-methoxybenzyl)oxy)pyrimidin-4-yl)-2,5-difluorobenzyl)-4-fluoro-1-(oxetan-2-ylmethyl)-1H-benzo[d]imidazole-6-carboxylic acid]
GLP-1R; [2]
  EC50: 0.1 nM
[1]
  Predicted Hepatic Clearance (Pred. Cl.): 10.2 mL/min/kg

## N#CCC1(Cn2c(Cc3c(F)cc(-c4ccnc(OCc5ccc(C#N)cc5F)n4)cc3F)nc3ccc(C(=O)O)cc32)CC1 [Example 399, 2-(4-(2-((4-cyano-2-fluorobenzyl)oxy)pyrimidin-4-yl)-2,6-difluorobenzyl)-1-((1-(cyanomethyl)cyclopropyl)methyl)-1H-benzo[d]imidazole-6-carboxylic acid]
GLP-1R; [2]
  EC50: 2.81 nM
[1]
  Predicted Hepatic Clearance (Pred. Cl.): 3.3 mL/min/kg

## N#CCC1(Cn2c(Cc3cc(F)c(-c4ccnc(OCc5ccc(C#N)cc5F)n4)cc3F)nc3ccc(C(=O)O)nc32)CC1 [Example 400, 2-(4-(2-((4-cyano-2-fluorobenzyl)oxy)pyrimidin-4-yl)-2,5-difluorobenzyl)-3-((1-(cyanomethyl)cyclopropyl)methyl)-3H-imidazo[4,5-b]pyridine-5-carboxylic acid]
GLP-1R; [2]
  EC50: 0.47 nM
[1]
  Predicted Hepatic Clearance (Pred. Cl.): <1.83 mL/min/kg

## COCCn1c(Cc2c(F)cc(-c3cccc(OCc4ccc(C#N)cc4F)n3)c(F)c2F)nc2ccc(C(=O)O)cc21 [Example 401, 2-(4-(6-((4-cyano-2-fluorobenzyl)oxy)pyridin-2-yl)-2,3,6-trifluorobenzyl)-1-(2-methoxyethyl)-1H-benzo[d]imidazole-6-carboxylic acid]
GLP-1R; EC50 (nM)
  EC50: 1.34 nM
[1]
  Predicted Hepatic Clearance (Pred. Cl.): 6.92 mL/min/kg

## N#Cc1ccc(COc2cccc(-c3ccc(Cc4nc5ccc(C(=O)O)cc5n4Cc4cnco4)c(F)c3)n2)c(F)c1 [Example 402, 2-(4-(6-((4-cyano-2-fluorobenzyl)oxy)pyridin-2-yl)-2-fluorobenzyl)-1-(oxazol-5-ylmethyl)-1H-benzo[d]imidazole-6-carboxylic acid]
GLP-1R; [2]
  EC50: 2.11 nM
[1]
  Predicted Hepatic Clearance (Pred. Cl.): 12 mL/min/kg

## N#Cc1ccc(COc2nccc(-c3ccc(Cc4nc5ccc(C(=O)O)cc5n4C[C@@H]4CCO4)cc3F)n2)c(F)c1 [Example 403, (S)-2-(4-(2-((4-cyano-2-fluorobenzyl)oxy)pyrimidin-4-yl)-3-fluorobenzyl)-1-(oxetan-2-ylmethyl)-1H-benzo[d]imidazole-6-carboxylic acid]
GLP-1R; [2]
  EC50: 0.89 nM
[1]
  Predicted Hepatic Clearance (Pred. Cl.): 4.95 mL/min/kg

## CCn1cnnc1Cn1c(Cc2ccc(-c3cccc(OCc4ccc(C#N)cc4F)n3)cc2F)nc2ccc(C(=O)O)cc21 [Example 404, 2-(4-(6-((4-cyano-2-fluorobenzyl)oxy)pyridin-2-yl)-2-fluorobenzyl)-1-((4-ethyl-4H-1,2,4-triazol-3-yl)methyl)-1H-benzo[d]imidazole-6-carboxylic acid]
GLP-1R; [2]
  EC50: 1.71 nM
[1]
  Predicted Hepatic Clearance (Pred. Cl.): <1.83 mL/min/kg

## COCCn1c(Cc2c(F)cc(-c3ccnc(OCc4ccc(C#N)cc4F)n3)c(F)c2F)nc2ccc(C(=O)O)cc21 [Example 405, 2-(4-(2-((4-cyano-2-fluorobenzyl)oxy)pyrimidin-4-yl)-2,3,6-trifluorobenzyl)-1-(2-methoxyethyl)-1H-benzo[d]imidazole-6-carboxylic acid]
GLP-1R; [2]
  EC50: 1.71 nM
[1]
  Predicted Hepatic Clearance (Pred. Cl.): 5.5 mL/min/kg

## N#Cc1ccc(COc2nccc(-c3ccc(Cc4nc5c(F)cc(C(=O)O)cc5n4C[C@@H]4CCO4)c(F)c3)n2)c(F)c1 [Example 406, (S)-2-(4-(2-((4-cyano-2-fluorobenzyl)oxy)pyrimidin-4-yl)-2-fluorobenzyl)-4-fluoro-1-(oxetan-2-ylmethyl)-1H-benzo[d]imidazole-6-carboxylic acid]
GLP-1R; [2]
  EC50: 0.18 nM
[1]
  Predicted Hepatic Clearance (Pred. Cl.): 3.83 mL/min/kg

## N#Cc1ccc(COc2cccc(-c3ccc(Cc4nc5ccc(C(=O)O)cc5n4Cc4cocn4)c(F)c3)n2)c(F)c1 [Example 407, 2-(4-(6-((4-cyano-2-fluorobenzyl)oxy)pyridin-2-yl)-2-fluorobenzyl)-1-(oxazol-4-ylmethyl)-1H-benzo[d]imidazole-6-carboxylic acid]
GLP-1R; [2]
  EC50: 4.69 nM
[1]
  Predicted Hepatic Clearance (Pred. Cl.): 3.75 mL/min/kg

## COCCn1c(Cc2c(F)cc(-c3cccnc3OCc3cc(Cl)ccc3F)cc2F)nc2ccc(C(=O)O)cc21 [Example 408, 2-(4-(2-((5-chloro-2-fluorobenzyl)oxy)pyridin-3-yl)-2,6-difluorobenzyl)-1-(2-methoxyethyl)-1H-benzo[d]imidazole-6-carboxylic acid]
GLP-1R; [2]
  EC50: ≥ 1000 nM
[1]
  Predicted Hepatic Clearance (Pred. Cl.): 10.1 mL/min/kg

## COc1cc(C#N)ccc1COc1cccc(-c2cc(F)c(Cc3nc4ccc(C(=O)O)cc4n3CC3(CF)CC3)cc2F)n1 [Example 409, 2-(4-(6-((4-cyano-2-methoxybenzyl)oxy)pyridin-2-yl)-2,5-difluorobenzyl)-1-((1-(fluoromethyl)cyclopropyl)methyl)-1H-benzo[d]imidazole-6-carboxylic acid]
GLP-1R; [2]
  EC50: 0.37 nM
[1]
  Predicted Hepatic Clearance (Pred. Cl.): <1.83 mL/min/kg

## COCCn1c(Cc2ccc(-c3cccc(OCc4ccc(C#N)cc4F)n3)cc2CF)nc2ccc(C(=O)O)cc21 [Example 410, 2-(4-(6-((4-cyano-2-fluorobenzyl)oxy)pyridin-2-yl)-2-(fluoromethyl)benzyl)-1-(2-methoxyethyl)-1H-benzo[d]imidazole-carboxylic acid]
GLP-1R; [2]
  EC50: 20.8 nM
[1]
  Predicted Hepatic Clearance (Pred. Cl.): 14.8 mL/min/kg

## COCCn1c(Cc2ccc(-c3cccc(OCc4ccc(C#N)cc4F)n3)cc2COC)nc2ccc(C(=O)O)cc21 [Example 411, 2-(4-(6-((4-cyano-2-fluorobenzyl)oxy)pyridin-2-yl)-2-(methoxymethyl)benzyl)-1-(2-methoxyethyl)-1H-benzo[d]imidazole-6-carboxylic acid]
GLP-1R; EC50 (nM)
  EC50: 140 nM
[1]
  Predicted Hepatic Clearance (Pred. Cl.): 9.33 mL/min/kg

## N#Cc1ccc(COc2nccc(-c3cc(F)c(Cc4nc5c(F)cc(C(=O)O)cc5n4CC4(CF)CC4)cc3F)n2)c(F)c1 [Example 412, 2-(4-(2-((4-cyano-2-fluorobenzyl)oxy)pyrimidin-4-yl)-2,5-difluorobenzyl)-4-fluoro-1-((1-(fluoromethyl)cyclopropyl)methyl)-1H-benzo[d]imidazole-6-carboxylic acid]
GLP-1R; [2]
  EC50: 0.33 nM
[1]
  Predicted Hepatic Clearance (Pred. Cl.): <1.83 mL/min/kg

## O=C(O)c1ccc2nc(Cc3cc(F)c(-c4ccnc(OCc5ccc(Cl)cc5F)n4)cc3F)n(C[C@@H]3CCO3)c2c1 [Example 413, (S)-2-(4-(2-((4-chloro-2-fluorobenzyl)oxy)pyrimidin-4-yl)-2,5-difluorobenzyl)-1-(oxetan-2-ylmethyl)-1H-benzo[d]imidazole-6-carboxylic acid]
GLP-1R; [2]
  EC50: 0.07 nM
[1]
  Predicted Hepatic Clearance (Pred. Cl.): <1.83 mL/min/kg

## COc1cc(Cl)ccc1COc1nccc(-c2cc(F)c(Cc3nc4ccc(C(=O)O)cc4n3CC3(CF)CC3)cc2F)n1 [Example 414, 2-(4-(2-((4-chloro-2-methoxybenzyl)oxy)pyrimidin-4-yl)-2,5-difluorobenzyl)-1-((1-(fluoromethyl)cyclopropyl)methyl)-1H-benzo[d]imidazole-6-carboxylic acid]
GLP-1R; [2]
  EC50: 0.44 nM
[1]
  Predicted Hepatic Clearance (Pred. Cl.): 12 mL/min/kg

## N#Cc1ccc(COc2nccc(-c3cc(F)c(Cc4nc5ccc(C(=O)O)cc5n4C[C@@H]4CCO4)cc3F)n2)c(F)c1 [Example 415, (S)-2-(4-(2-((4-cyano-2-fluorobenzyl)oxy)pyrimidin-4-yl)-2,5-difluorobenzyl)-1-(oxetan-2-ylmethyl)-1H-benzo[d]imidazole-6-carboxylic acid]
GLP-1R; [2]
  EC50: 0.15 nM
[1]
  Predicted Hepatic Clearance (Pred. Cl.): 4.33 mL/min/kg

## N#CCC1(Cn2c(Cc3cc(F)c(-c4cccc(OCc5ccc(Cl)cc5F)n4)cc3F)nc3ccc(C(=O)O)cc32)CC1 [Example 416, 2-(4-(6-((4-chloro-2-fluorobenzyl)oxy)pyridin-2-yl)-2,5-difluorobenzyl)-1-((1-(cyanomethyl)cyclopropyl)methyl)-1H-benzo[d]imidazole-6-carboxylic acid]
GLP-1R; [2]
  EC50: 0.09 nM
[1]
  Predicted Hepatic Clearance (Pred. Cl.): 4.17 mL/min/kg

## COc1cc(C#N)ccc1COc1nccc(-c2cc(F)c(Cc3nc4ccc(C(=O)O)cc4n3CC3(CC#N)CC3)cc2F)n1 [Example 417, 2-(4-(2-((4-cyano-2-methoxybenzyl)oxy)pyrimidin-4-yl)-2,5-difluorobenzyl)-1-((1-(cyanomethyl)cyclopropyl)methyl)-1H-benzo[d]imidazole-6-carboxylic acid]
GLP-1R; [2]
  EC50: 0.1 nM
[1]
  Predicted Hepatic Clearance (Pred. Cl.): 12.7 mL/min/kg

## COCCn1c(Cc2ccc(-c3cccc(OCc4ccc(C#N)cc4F)n3)cc2C#CC(C)(C)O)nc2ccc(C(=O)O)cc21 [Example 419, 2-(4-(6-((4-cyano-2-fluorobenzyl)oxy)pyridin-2-yl)-2-(3-hydroxy-3-methylbut-1-yn-1-yl)benzyl)-1-(2-methoxyethyl)-1H-benzo[d]imidazole-6-carboxylic acid]
GLP-1R; [2]
  EC50: 20.7 nM
[1]
  Predicted Hepatic Clearance (Pred. Cl.): 7.33 mL/min/kg

## N#Cc1ccc(COc2nccc(-c3cc(F)c(Cc4nc5c(F)cc(C(=O)O)cc5n4C[C@@H]4CCO4)cc3F)n2)c(F)c1 [Example 420, (S)-2-(4-(2-((4-cyano-2-fluorobenzyl)oxy)pyrimidin-4-yl)-2,5-difluorobenzyl)-4-fluoro-1-(oxetan-2-ylmethyl)-1H-benzo[d]imidazole-6-carboxylic acid]
GLP-1R; [2]
  EC50: 0.05 nM
[1]
  Predicted Hepatic Clearance (Pred. Cl.): 3.5 mL/min/kg
